Measured values taken from ChEMBL document CHEMBL1201862, “PubChem BioAssay data set” (2004).
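All cell lines were grown in 96-well plates and treated with compound for 48 hours. GI50: concentration for 50% inhibition of growth.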 The source made the active and inactive calls. Cut-off read from the data, not from the text of the source: active = GI50 up to about 1.1 µM and inactive = higher.

Experiments:
Test in all cases: growth of human tumour cells (NCI), 48 h
786-0 = test system: 786-0
A498 = test system: A498
ACHN = test system: ACHN
COLO 205 = test system: COLO 205
HCT-15 = test system: HCT-15
HL-60 = test system: HL-60
HOP-92 = test system: HOP-92
KM12 = test system: KM12
LOX IMVI = test system: LOX IMVI
Malme-3M = test system: Malme-3M
NCI-H460 = test system: NCI-H460
OVCAR-4 = test system: OVCAR-4
RXF 393 = test system: RXF 393
SF-295 = test system: SF-295
SK-MEL-2 = test system: SK-MEL-2
SK-OV-3 = test system: SK-OV-3
SN12C = test system: SN12C
SNB-19 = test system: SNB-19
SNB-75 = test system: SNB-75
UO-31 = test system: UO-31

Row | Structure (SMILES) | GI50 (786-0) | GI50 (A498) | GI50 (ACHN) | GI50 (COLO 205) | GI50 (HCT-15) [µM] | GI50 (HL-60) | GI50 (HOP-92) | GI50 (KM12) | GI50 (LOX IMVI) | GI50 (Malme-3M) | GI50 (NCI-H460) | GI50 (OVCAR-4) | GI50 (RXF 393) | GI50 (SF-295) | GI50 (SK-MEL-2) | GI50 (SK-OV-3) | GI50 (SN12C) | GI50 (SNB-19) | GI50 (SNB-75) | GI50 (UO-31)
1 | COc1ccc(/C=N/c2c(O)ccc3ccccc23)cc1OC | > 100 µM (inactive) | > 100 µM (inactive) | > 100 µM (inactive) | 33 µM (inactive) | > 100 | 22.1 µM (inactive) | 1.95 µM (inactive) | > 100 µM (inactive) | 46.8 µM (inactive) | 14.5 µM (inactive) | 80.9 µM (inactive) | > 100 µM (inactive) | 69.3 µM (inactive) | 63.7 µM (inactive) | > 100 µM (inactive) | > 100 µM (inactive) | > 100 µM (inactive) | > 100 µM (inactive) | 47.2 µM (inactive) | > 100 µM (inactive)
2 | C/C=C(/I)CBr | 17 µM (inactive) | > 10 µM (inactive) | 21.8 µM (inactive) | 13.2 µM (inactive) | 18.2 | 4.49 µM (inactive) | 15.3 µM (inactive) | – | 16.2 µM (inactive) | 16 µM (inactive) | 18.9 µM (inactive) | 17.3 µM (inactive) | 17.3 µM (inactive) | – | 14.4 µM (inactive) | 30.8 µM (inactive) | 17.2 µM (inactive) | 23.7 µM (inactive) | > 10 µM (inactive) | 18.9 µM (inactive)
3 | CSCSCC(CO)NC(=O)/C=C/c1c(C)nc(O)nc1O (stereo unspecified) | > 100 µM (inactive) | > 100 µM (inactive) | > 100 µM (inactive) | – | > 100 | > 100 µM (inactive) | > 100 µM (inactive) | > 100 µM (inactive) | > 100 µM (inactive) | > 100 µM (inactive) | > 100 µM (inactive) | 37 µM (inactive) | > 100 µM (inactive) | > 100 µM (inactive) | 89.9 µM (inactive) | – | > 100 µM (inactive) | 28.8 µM (inactive) | > 100 µM (inactive) | > 100 µM (inactive)
4 | CC(C)(C)c1ccc(OC(=O)Nc2ccc(O)c(C(=O)O)c2)cc1 | > 100 µM (inactive) | > 100 µM (inactive) | > 100 µM (inactive) | > 100 µM (inactive) | > 100 | 30.7 µM (inactive) | > 100 µM (inactive) | > 100 µM (inactive) | > 100 µM (inactive) | > 100 µM (inactive) | > 100 µM (inactive) | > 100 µM (inactive) | > 100 µM (inactive) | > 100 µM (inactive) | > 100 µM (inactive) | > 100 µM (inactive) | > 100 µM (inactive) | > 100 µM (inactive) | > 100 µM (inactive) | –
5 | CCN(CC)CC(C(=O)Nc1c(C)cccc1C)/C(C)=N/NC(N)=S (stereo unspecified) | > 100 µM (inactive) | > 100 µM (inactive) | > 100 µM (inactive) | > 100 µM (inactive) | – | > 100 µM (inactive) | > 100 µM (inactive) | > 100 µM (inactive) | > 100 µM (inactive) | > 100 µM (inactive) | > 100 µM (inactive) | – | > 100 µM (inactive) | > 100 µM (inactive) | > 100 µM (inactive) | > 100 µM (inactive) | – | – | > 100 µM (inactive) | > 100 µM (inactive)
